{
  "source": "PubChem BioAssay AID1259410",
  "about": "(Chemical Carcinogenesis Research Information System (CCRIS), 2018)",
  "origin": "cited, not measured here",
  "system": "rodent tumor promotion studies, tumor incidence",
  "experiment": "CCRIS tumor promotion studies",
  "note": "Numbered stars: 1 amine (or outer) side, 2 acyl side, 3 side chain; on linkers, the order of the positions; unused ones are H or OH. Square brackets hold non-standard residues; d marks the D form. Peptide text beside a SMILES is read from it. X1 = O=C(C(N[*:1])c1ccc(OS(=O)(=O)O)cc1)[*:2]",
  "data": [
    {"compound": "O=C(O)C(Cl)(Cl)Cl", "values": [
      {"measurement": "outcome", "setting": "Carcinogen: N-METHYL-N-NITROSOUREA, 684-93-5, Doses [Carcinogen]: 25 MG/KG IN STERILE SALINE ONCE, Doses [Promoter]: 0, 25 MMOL/L IN DRINKING WATER FOR 44 WK BEGINNING 2 WK POST CARCINOGEN DOSE (STUDY DURATION: 46 WK), Route [Carcinogen]: INTRAPERITONEAL, Route [Promoter]: ORAL, Species: MOUSE, Strain/Sex: B6C3F1/FEMALE", "result": "liver: adenoma"},
      {"measurement": "outcome", "setting": "Carcinogen: N-METHYL-N-NITROSOUREA, 684-93-5, Doses [Carcinogen]: 25 MG/KG ONCE AT 15 D OF AGE, Doses [Promoter]: 0, 20 NMOL/L IN DRINKING WATER FOR 31 WK BEGINNING AT 7 WK OF AGE (STUDY DURATION: 31 WK), Route [Carcinogen]: INTRAPERITONEAL, Route [Promoter]: ORAL, Species: MOUSE, Strain/Sex: B6C3F1/FEMALE", "result": "liver: adenoma"},
      {"measurement": "outcome", "setting": "Carcinogen: N-METHYL-N-NITROSOUREA, 684-93-5, Doses [Carcinogen]: 25 MG/KG ONCE AT 15 D OF AGE, Doses [Promoter]: 0, 20 NMOL/L IN DRINKING WATER FOR 31 WK BEGINNING AT 7 WK OF AGE (STUDY DURATION: 52 WK), Route [Carcinogen]: INTRAPERITONEAL, Route [Promoter]: ORAL, Species: MOUSE, Strain/Sex: B6C3F1/FEMALE", "result": "liver: adenoma, carcinoma"},
      {"measurement": "outcome", "setting": "Carcinogen: N-METHYL-N-NITROSOUREA, 684-93-5, Doses [Carcinogen]: 25 MMG/KG ONCE AT 15 D OF AGE, Doses [Promoter]: 0, 6.67, 20 NMOL/L IN DRINKING WATER FOR 52 WK BEGINNING AT 7 WK OF AGE (STUDY DURATION: 52 WK), Doses [Promoter]: 0, 6.67, 20 NMOL/L IN DRINKING WATER FOR 52 WK BEGINNING AT 7 WK OF AGE (STUDY DURATION: 52 WK), Route [Carcinogen]: INTRAPERITONEAL, Route [Promoter]: ORAL, Species: MOUSE, Strain/Sex: B6C3F1/FEMALE", "result": "liver: adenoma, carcinoma"}
    ]},
    {"compound": "O=C1c2cccc(O)c2C(=O)c2c(O)cccc21", "values": [
      {"measurement": "outcome", "setting": "Carcinogen: 1,2-DIMETHYLHYDRAZINE, 540-73-8, Doses [Carcinogen]: 20 MG/KG BW 1/WK FOR 12 WK, Doses [Promoter]: 0, 0.2% IN DIET FOR 42 WK BEGINNING POST CARCINOGEN TREATMENT (STUDY DURATION: 54 WK), Route [Carcinogen]: SUBCUTANEOUS, Route [Promoter]: ORAL, Species: MOUSE, Strain/Sex: ICR/CD-1/MALE", "result": "colon: tumor; liver: tumor"}
    ]},
    {"compound": "CC(C)=CCC/C(C)=C/CC/C(C)=C/CC/C=C(\\C)CC/C=C(\\C)CCC=C(C)C", "values": [
      {"measurement": "outcome", "setting": "Carcinogen: 7,12-DIMETHYLBENZ(A)ANTHRACENE, Doses [Carcinogen]: TOP, Route [Carcinogen]: DERMAL, Route [Promoter]: DERMAL, Species: MOUSE, Strain/Sex: MALE", "result": "integumentary system (skin)"}
    ]},
    {"compound": "CCCCCCCCCCCCCC1(CC(=O)OC2C(C)C3(O)C(C=C(CO)CC4(O)C(=O)C(C)=CC43)C3C(C)(C)C23OC(C)=O)OCC(C)(C)N1[O]", "note": "(centres undefined)", "values": [
      {"measurement": "outcome", "setting": "Carcinogen: 7,12-DIMETHYLBENZ[A]ANTHRACENE, 57-97-6, Doses [Carcinogen]: 100 NMOL ONCE, Doses [Promoter]: 0, 5 NMOL 2/WK FOR 36 WK BEGINNING 1 WK POST CARCINOGEN DOSE (STUDY DURATION: 25 WK), Route [Carcinogen]: DERMAL, Route [Promoter]: DERMAL, Species: MOUSE, Strain/Sex: NMRI/FEMALE", "result": "skin: tumor"}
    ]},
    {"compound": "CCC(C)C(NC(=O)C(CCCNC(=N)N)NC(=O)C(Cc1c[nH]cn1)NC(=O)C(CO)NC(=O)C1CCCN1C(=O)C(CC(=O)O)NC(=O)C(CC(C)C)NC(=O)C(CC(N)=O)NC(=O)C(CCC(N)=O)NC(=O)C(CC(C)C)NC(=O)C(CC(N)=O)NC(=O)C(CCCCN)NC(=O)C(NC(=O)C(NC(=O)C(CO)NC(=O)C(CCSC)NC(=O)C(CCCNC(=N)N)NC(=O)CNC(=O)C(CO)NC(=O)C1CCCN1C(=O)C(C)NC(=O)C(N)CCCCN)C(C)CC)C(C)C)C(=O)NC(CO)C(=O)NC(CC(=O)O)C(=O)NC(CCCNC(=N)N)C(=O)NC(CC(=O)O)C(=O)NC(C(=O)NC(CCSC)C(=O)NCC(=O)NC(Cc1c[nH]c2ccccc12)C(=O)NC(CCSC)C(=O)NC(CC(=O)O)C(=O)NC(Cc1ccccc1)C(N)=O)c1ccc(OS(=O)(=O)O)cc1", "note": "(centres undefined) (H-KAPSGRMSIVKNLQNLDPSHRISDRD[X1]MGWMDF-NH2; configuration not given here)", "values": [
      {"measurement": "outcome", "setting": "Carcinogen: AZASERINE, 115-02-6, Doses [Carcinogen]: 30 MG/KG ON DAYS 19, 26, AND 54 OF AGE, Doses [Promoter]: 0, 2.5 UG/KG BW 1/D 3 D/WK FOR 8 MO BEGINNING 4 MO POST FIRST CARCINOGEN DOSE (STUDY DURATION: 8 MO), Route [Carcinogen]: INTRAPERITONEAL, Route [Promoter]: SUBCUTANEOUS, Species: RAT, Strain/Sex: WISTAR/MALE", "result": "pancreas: adenoma"},
      {"measurement": "outcome", "setting": "Carcinogen: N-NITROSOBIS(2-OXOPROPYL)AMINE, 60599-38-4, Doses [Carcinogen]: 5 MG/KG 1/WK FOR STUDY DURATION, Doses [Promoter]: 0, 30 IDU/KG 3 D/WK FOR 6 WK (STUDY DURATION: 15 WK), Route [Carcinogen]: SUBCUTANEOUS, Route [Promoter]: SUBCUTANEOUS, Species: HAMSTER, Strain/Sex: SYRIAN/MALE", "result": "pancreas: adenocarcinoma"}
    ]},
    {"compound": "CCCCCCCCCCCCCC(=O)O[C@@]12C[C@@H](C)[C@@]3(O)[C@@H](C=C(CO)C[C@]4(O)C(=O)C(C)=C[C@@H]34)[C@@H]1C2(C)C", "values": [
      {"measurement": "outcome", "setting": "Carcinogen: 7,12-DIMETHYLBENZ[A]ANTHRACENE, 57-97-6, Doses [Carcinogen]: 100 NMOL ONCE, Doses [Promoter]: 0, 80 NMOL 2/WK FOR 42 WK (STUDY DURATION: 42 WK), Route [Carcinogen]: DERMAL, Route [Promoter]: DERMAL, Species: MOUSE, Strain/Sex: NMRI", "result": "skin: tumor"}
    ]},
    {"compound": "CC(O)CN(C)N=O", "note": "(centres undefined)", "values": [
      {"measurement": "outcome", "setting": "Carcinogen: 1-NITRO-1,3-DIMETHYLUREA, 13256-32-1, Doses [Carcinogen]: 10 MG/ML IN ETHYL ACETATE/CORN OIL (1:1) 1/WK FOR 2 WK, Doses [Promoter]: 0, 20 MG/L IN DRINKING WATER 5D/WK FOR 40 WK BEGINNING 1/WK POST CARCINOGEN TREATMENT (STUDY DURATION: 43 WK), Route [Carcinogen]: GAVAGE, Route [Promoter]: ORAL, Species: RAT, Strain/Sex: F344/MALE", "result": "kidney: nephroblastoma"},
      {"measurement": "outcome", "setting": "Carcinogen: 1-NITROSO-1,3-DIETHYLUREA, 49540-32-1, Doses [Carcinogen]: 12 MG/ML IN ETHYL ACETATE/CORN OIL (1:1) 1/WK FOR 2 WK, Doses [Promoter]: 0, 20 MG/L IN DRINKING WATER 5 D/WK FOR 40 WK BEGINNING 1/WK POST CARCINOGEN TREATMENT (STUDY DURATION: 43 WK), Route [Carcinogen]: GAVAGE, Route [Promoter]: ORAL, Species: RAT, Strain/Sex: F344/MALE", "result": "thyroid: adenocarcinoma; lung: adenocarcinoma; kidney: nephroblastoma"},
      {"measurement": "outcome", "setting": "Carcinogen: NITROSOBIS(2-OXOPROPYL)AMINE, 60599-38-4, Doses [Carcinogen]: 12 MG/ML IN ETHYL ACETATE/CORN OIL (1:1) 2/WK FOR 2 WK, Doses [Promoter]: 0, 20 MG/L IN DRINKING WATER 5D/WK FOR 40 WK BEGINNING 1/WK POST CARCINOGEN TREATMENT (STUDY DURATION: 43 WK), Route [Carcinogen]: GAVAGE, Route [Promoter]: ORAL, Species: RAT, Strain/Sex: F344/MALE", "result": "kidney: renal cell carcinoma"}
    ]},
    {"compound": "[Na+]", "values": [
      {"measurement": "outcome", "setting": "Carcinogen: N-BUTYL-N-(4-HYDROXYBUTYL)NITROSAMINE, 3817-11-6, Doses [Carcinogen]: 0.05% IN DRINKING WATER FOR 4 WK, Doses [Promoter]: 0, 2.34% IN DIET BEGINNING POST LAST CARCINOGEN DOSE AND CONTINUING FOR 32 WK (STUDY DURATION: 37 WK), Route [Carcinogen]: ORAL, Route [Promoter]: ORAL, Species: RAT, Strain/Sex: WISTAR/MALE", "result": "urinary bladder: papilloma"},
      {"measurement": "outcome", "setting": "Carcinogen: N-METHYL-N'-NITRO-N-NITROSOGUANIDINE, 70-25-7, Doses [Carcinogen]: 0.25 ML/10 G BW OF A 5 G/L DISTILLED WATER SOLUTION (7.5-8.8 MG/RAT) ONCE, Doses [Promoter]: 0, 10% IN DIET BEGINNING POST CARCINOGEN DOSE AND CONTINUING FOR STUDY DURATION (STUDY DURATION: 1 YR), Route [Carcinogen]: INTRAGASTRIC, Route [Promoter]: ORAL, Species: RAT, Strain/Sex: ACI/MALE", "result": "forestomach: squamous carcinoma"},
      {"measurement": "outcome", "setting": "Carcinogen: N-METHYL-N'-NITRO-N-NITROSOGUANIDINE, 70-25-7, Doses [Carcinogen]: 25 UG/ML IN DRINKING WATER FOR 25 WK, Doses [Promoter]: 0, 10% IN DIET FOR 26 WK BEGINNING 1 WK POST CARCINOGEN TREATMENT (STUDY DURATION: 52 WK), Route [Carcinogen]: ORAL, Route [Promoter]: ORAL, Species: RAT, Strain/Sex: WISTAR/MALE", "result": "glandular stomach: adenocarcinoma"},
      {"measurement": "outcome", "setting": "Carcinogen: N-METHYL-N'-NITRO-N-NITROSOGUANIDINE, 70-25-7, Doses [Carcinogen]: 100 PPM IN DRINKING WATER FOR 8 WK, Doses [Promoter]: 0, 5, 10% IN DIET FOR 82 WK BEGINNING POST CARCINOGEN TREATMENT (STUDY DURATION: 90 WK), Doses [Promoter]: 0, 5, 10% IN DIET FOR 82 WK BEGINNING POST CARCINOGEN TREATMENT (STUDY DURATION: 90 WK), Route [Carcinogen]: ORAL, Route [Promoter]: ORAL, Species: RAT, Strain/Sex: WISTAR/MALE", "result": "glandular stomach: adenoma or adenocarcinoma"},
      {"measurement": "outcome", "setting": "Carcinogen: N-METHYL-N'-NITRO-N-NITROSOGUANIDINE, 70-25-7, Doses [Carcinogen]: 100 PPM IN DRINKING WATER FOR 10 WK, Doses [Promoter]: 0, 2.5, 5% IN DIET FOR 62 WK BEGINNING POST CARCINOGEN TREATMENT (STUDY DURATION: 72 WK), Doses [Promoter]: 0, 2.5, 5% IN DIET FOR 62 WK BEGINNING POST CARCINOGEN TREATMENT (STUDY DURATION: 72 WK), Route [Carcinogen]: ORAL, Route [Promoter]: ORAL, Species: RAT, Strain/Sex: WISTAR/MALE", "result": "stomach: adenocarcinoma"},
      {"measurement": "outcome", "setting": "Carcinogen: N-[4-(5-NITRO-2-FURYL)-2-THIAZOLYL]FORMAMIDE, 24554-26-5, Doses [Carcinogen]: 0.2% IN DIET FOR 6 WK, Doses [Promoter]: 0, 1.34% IN PROLAB DIET FOR 72 WK BEGINNING POST CARCINOGEN TREATMENT (STUDY DURATION: 78 WK), Route [Carcinogen]: ORAL, Route [Promoter]: ORAL, Species: RAT, Strain/Sex: F344/MALE", "result": "urinary bladder: carcinoma, carcinoma and papilloma"}
    ]}
  ]
}
